Assay results taken from patent US20020137929A1, “1 - (3-heterocyclylphenyl) isothiourea, -isourea, -guanidine and -amidine herbicidal agents” (Intellectual Property Department, BASF Aktiengesellschaft, priority 1998, published 2002).

Legend:
[1] = tested on: CYPIR (Rice Flatsedge); assay: Preemergence weed control under flooded paddy conditions; assay type: in vivo, Cyperus iria; settings: rated 3-4 weeks after treatment
Procedure, shortened: (§1)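 Seeds or propagules sown in silt loam kept flooded 1.5-3 cm; compounds in 50/50 acetone/water pipetted into flood water at about 0.0313 to 0.500 kg/ha. Greenhouse; visual 0-9 rating versus untreated control 3-4 weeks after treatment.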

[2] = tested on: ABUTH (Velvetleaf); assay: Postemergence herbicidal evaluation; assay type: in vivo, Abutilon theophrasti; settings: postemergence
Procedure, shortened: (§2)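 Compound is applied as a foliar spray to seedlings about two weeks old, formulated in equal parts acetone and water with 0.5% TWEEN 20 and delivered at 40 psi to give about 0.0156–0.500 kg per hectare. Injury is rated visually 0–9 after four to five weeks.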

[3] = tested on: MOOVA (Monochoria); assay: Preemergence weed control under flooded paddy conditions; assay type: in vivo, Monochoria vaginalis; settings: rated 3-4 weeks after treatment
Procedure, shortened: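 Seeds or propagules sown in top 0.5 cm of silt loam soil, flooded 1.5 to 3 cm above surface throughout. Compound in 50/50 v/v aqueous/acetone pipetted into flood water at about 0.0313 to 0.500 kg/ha. Visual 0-9 rating versus control after three to four weeks in greenhouse.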

[4] = tested on: ECHCG (Barnyardgrass); assay: Postemergence herbicidal evaluation; assay type: in vivo, Echinochloa crus-galli; settings: postemergence
Procedure, shortened: as §2

[5] = tested on: SETVI (Foxtail, Green); assay: Postemergence herbicidal evaluation; assay type: in vivo, Setaria viridis; settings: postemergence
Procedure, shortened: as §2

[6] = tested on: IPOHE (Morningglory, Ivyleaf); assay: Preemergence herbicidal evaluation; assay type: in vivo, Ipomoea hederacea; settings: rated 4-5 weeks after treatment
Procedure, shortened: (§3)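 Greenhouse preemergence test: seed-soil mix sown on ~1 inch soil; aqueous acetone spray at equivalent of ~0.0156–0.500 kg/ha; greenhouse-held and watered; scored 0–9 visually at 4–5 weeks.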

[7] = tested on: ECHORC (Watergrass (Calif.)); assay: Preemergence weed control under flooded paddy conditions; assay type: in vivo, Echinochloa oryzoides; settings: rated 3-4 weeks after treatment
Procedure, shortened: as §1

[8] = tested on: GALAP (Galium); assay: Postemergence herbicidal evaluation; assay type: in vivo, Galium aparine; settings: postemergence
Procedure, shortened: as §2

[9] = tested on: ZEAMX (Corn, Field); assay: Preemergence herbicidal evaluation; assay type: in vivo, Zea mays; settings: rated 4-5 weeks after treatment
Procedure, shortened: as §3

[10] = tested on: ORYSAT (Rice, Tebonnet); assay: Postemergence herbicidal evaluation; assay type: in vivo, Oryza sativa, (L.) Tebonnet; settings: postemergence
Procedure, shortened: as §2

[11] = tested on: TRZAWR (Wheat, Winter, cv Riband); assay: Preemergence herbicidal evaluation; assay type: in vivo, Triticum aestivum; settings: rated 4-5 weeks after treatment
Procedure, shortened: as §3

Cn1c(C(F)(F)F)cc(=O)n(-c2cc(N=C3SCC(=O)N3C3CCCC3)c(Cl)cc2F)c1=O [Compound 166, 3-{4-Chloro-5-[(3-cyclopentyl-4-oxo-2-thiazolidinylidene)amino]-2-fluorophenyl}-1-methyl-6-(trifluoromethyl)-2,4(1H,3H)-pyrimidinedione]
herbicidal effect rating, CYPIR ([1]; 0.0313 kg/ha): 2.0 | herbicidal effect rating, CYPIR ([1]; 0.0625 kg/ha): 2.0 | herbicidal effect rating, CYPIR ([1]; 0.1250 kg/ha): 6.0 | herbicidal effect rating, CYPIR ([1]; 0.2500 kg/ha): 9.0 | Herbicidal rating ABUTH ([2]; rate 0.0156 kg/ha): 2.0 | Herbicidal rating ABUTH ([2]; rate 0.0313 kg/ha): 1.0 | Herbicidal rating ABUTH ([2]; rate 0.0625 kg/ha): 3.0 | Herbicidal rating ABUTH ([2]; rate 0.1250 kg/ha): 9.0 | herbicidal effect rating, MOOVA ([3]; 0.0313 kg/ha): 9.0 | herbicidal effect rating, MOOVA ([3]; 0.0625 kg/ha): 9.0 | herbicidal effect rating, MOOVA ([3]; 0.1250 kg/ha): 9.0 | herbicidal effect rating, MOOVA ([3]; 0.2500 kg/ha): 9.0 | Herbicidal rating ECHCG ([4]; rate 0.0156 kg/ha): 0.0 | Herbicidal rating ECHCG ([4]; rate 0.0313 kg/ha): 0.0 | Herbicidal rating ECHCG ([4]; rate 0.0625 kg/ha): 1.0 | Herbicidal rating ECHCG ([4]; rate 0.1250 kg/ha): 2.0 | Herbicidal rating SETVI ([5]; rate 0.0156 kg/ha): 0.0 | Herbicidal rating SETVI ([5]; rate 0.0313 kg/ha): 0.0 | Herbicidal rating SETVI ([5]; rate 0.0625 kg/ha): 1.0 | Herbicidal rating SETVI ([5]; rate 0.1250 kg/ha): 2.0 | Preemergence herbicidal rating IPOHE ([6]; 0.0156 kg/ha): 0.0 | Preemergence herbicidal rating IPOHE ([6]; 0.0313 kg/ha): 3.0 | Preemergence herbicidal rating IPOHE ([6]; 0.1250 kg/ha): 2.0 | Preemergence herbicidal rating IPOHE ([6]; 0.2500 kg/ha): 6.0 | Preemergence herbicidal rating IPOHE ([6]; 0.5000 kg/ha): 8.0 | herbicidal effect rating, ECHORC ([7]; 0.0313 kg/ha): 2.0 | herbicidal effect rating, ECHORC ([7]; 0.0625 kg/ha): 2.0 | herbicidal effect rating, ECHORC ([7]; 0.1250 kg/ha): 2.0 | herbicidal effect rating, ECHORC ([7]; 0.2500 kg/ha): 4.0 | Herbicidal rating GALAP ([8]; rate 0.0156 kg/ha): 0.0 | Herbicidal rating GALAP ([8]; rate 0.0313 kg/ha): 0.0 | Herbicidal rating GALAP ([8]; rate 0.0625 kg/ha): 0.0 | Herbicidal rating GALAP ([8]; rate 0.1250 kg/ha): 2.0 | Preemergence herbicidal rating ZEAMX ([9]; 0.0156 kg/ha): 0.0 | Preemergence herbicidal rating ZEAMX ([9]; 0.0313 kg/ha): 0.0 | Preemergence herbicidal rating ZEAMX ([9]; 0.0625 kg/ha): 1.0 | Preemergence herbicidal rating ZEAMX ([9]; 0.1250 kg/ha): 1.0 | Preemergence herbicidal rating ZEAMX ([9]; 0.2500 kg/ha): 3.0 | Preemergence herbicidal rating ZEAMX ([9]; 0.5000 kg/ha): 6.0 | Herbicidal rating ORYSAT ([10]; rate 0.0156 kg/ha): 1.0 | Herbicidal rating ORYSAT ([10]; rate 0.0313 kg/ha): 0.5 | Herbicidal rating ORYSAT ([10]; rate 0.0625 kg/ha): 1.5 | Herbicidal rating ORYSAT ([10]; rate 0.1250 kg/ha): 2.0 | Preemergence herbicidal rating TRZAWR ([11]; 0.0156 kg/ha): 0.0 | Preemergence herbicidal rating TRZAWR ([11]; 0.0313 kg/ha): 0.0 | Preemergence herbicidal rating TRZAWR ([11]; 0.0625 kg/ha): 1.0 | Preemergence herbicidal rating TRZAWR ([11]; 0.1250 kg/ha): 1.0 | Preemergence herbicidal rating TRZAWR ([11]; 0.2500 kg/ha): 1.0 | Preemergence herbicidal rating TRZAWR ([11]; 0.5000 kg/ha): 3.0
